Assay results published in US20070167466A1, “"Pyrazolo [4,3-d]pyrimidines, processes for their preparation and methods of use"” (priority 2003, published 2007).
pIC50: −log10 of the molar value. Read-outs that look alike come from different tables or passages of the source.

Tests used:
[1] = biological target: T1, CDK1 (p34^cdc2, cyclin B) (Homo sapiens, UniProt P06493); experiment: CDK inhibition assay, p34^cdc2 kinase, histone H1 phosphorylation; type: biochemical; conditions: 15 μM ATP, histone H1, 30° C.
T1 construct: made in house; host or cells: Sf9 insect cells (baculovirus co-infection)
T1 sequence (P06493 whole entry, species assumed): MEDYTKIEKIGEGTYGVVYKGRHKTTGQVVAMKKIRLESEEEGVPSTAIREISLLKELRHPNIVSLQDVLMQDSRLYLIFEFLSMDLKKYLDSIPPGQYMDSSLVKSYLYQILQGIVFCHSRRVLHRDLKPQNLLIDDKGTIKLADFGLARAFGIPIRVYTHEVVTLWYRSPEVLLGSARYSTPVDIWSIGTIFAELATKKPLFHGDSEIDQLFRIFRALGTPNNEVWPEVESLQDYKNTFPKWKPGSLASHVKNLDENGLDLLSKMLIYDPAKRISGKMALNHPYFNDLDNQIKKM
T1 sequence (P14635 whole entry partner, species assumed): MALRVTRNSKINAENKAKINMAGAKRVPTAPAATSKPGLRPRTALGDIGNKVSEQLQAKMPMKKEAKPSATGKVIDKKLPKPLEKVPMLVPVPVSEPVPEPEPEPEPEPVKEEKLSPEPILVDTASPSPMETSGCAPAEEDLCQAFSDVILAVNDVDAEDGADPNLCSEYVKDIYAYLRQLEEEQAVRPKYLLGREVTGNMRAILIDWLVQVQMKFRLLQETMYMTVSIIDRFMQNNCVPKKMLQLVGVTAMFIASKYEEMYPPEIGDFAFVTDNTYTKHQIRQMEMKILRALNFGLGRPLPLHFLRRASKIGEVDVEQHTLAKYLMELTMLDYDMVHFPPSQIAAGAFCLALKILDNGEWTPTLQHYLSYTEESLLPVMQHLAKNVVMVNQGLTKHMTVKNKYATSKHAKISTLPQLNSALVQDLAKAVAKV
Protocol: The controls contain suitable dilutions of DMSO.
2-glycerolphosphate, 1 mM NaF, 1 mM DTT

[2] = system: CDC2a (cdc2a-MS protein, plant Cdc2-kinase); type: biochemical; conditions: enzyme bound to p13^suc1-agarose, histone H1, various concentrations
Protocol: (§1) Enzyme activity bound to p13^suc1-agarose was measured by phosphorylation of histone H1 substrate protein in the presence of various concentrations of (1) 7-furfurylamino-3-methylpyrazolo[4,3-d]pyrimidine, (2) 7-benzylamino-3-isopropylpyrazolo[4,3-d]pyrimidine, (3) 7-(3-chloroanilino)-3-isopropylpyrazolo[4,3-d]pyrimidine, (4) 7-(3-hydroxybenzyl)amino-3-isopropylpyrazolo[4,3-d]pyrimidine.
(§2) The quantification of radioactivity incorporated into histone H1 or myelin basic protein was undertaken using Phosphoimager (original gel images shown on FIG. 1). IC50 were calculated from dose-response curves.

[3] = system: K562 (human chronic myeloblastic leukemia); experiment: In vitro cytotoxic activity, Calcein AM, three days; type: cell-based; conditions: read-out: K-562 IC50
Protocol: (§3) We have been using the following cell lines: HELA (human cervical carcinoma), MCF7 (human breast adenocarcinoma), NIH 3T3 (mouse fibroblasts), HOS (human osteogenic sarcoma), HL 60 (human promyelocytic leukemia), G 361 (human malignant melanoma), K562 (human chronic myeloblastic leukemia), CEM (human lymphoblastoid leukaemia). Tested drugs were added to the cell cultures in six different concentration and kept at 37° C. and 5% CO2 for three days. All cell lines were grown in DMBM medium (Gibco BRL) supplemented with 10% (v/v) fetal bovine serum and L-glutamine and maintained at 37° C. in a humidified atmosphere with 5% CO2. 10^4 cells were seeded into each well of 96 well plate, allowed to stabilize for at least 2 h and then tested compounds were added at various concentrations ranging from 200 to 0.2 μM in triplicates. Three days after drug addition Calcein AM solution (Molecular Probes) was added and let to enter the cells for 1 hour. Fluorescence of viable cells was quantified employing Fluoroskan Ascent (Microsystems).

[4] = system: MCF7 (human breast adenocarcinoma); experiment: as above; type: cell-based
Protocol: as §3

[5] = system: Cytokinin-dependent tobacco callus Nicotiana tabacum L. cv. Wisconsins 38; experiment: Tobacco callus bioassay for cytotoxicity (herbicidal activity); type: cell-based; conditions: Nicotiana tabacum, 672 h, four weeks
Protocol: The compounds to be tested were dissolved in dimethylsulfoxide (DMSO) and the solution brought up to 10^−3 M with distilled water. […] Cytokinin-dependent tobacco callus Nicotiana tabacum L. cv. […] Subcultivation was carried out every three weeks. Fourteen days before the bioassay, the callus tissue was transferred to the media without 6-benzylaminopurine. Compounds were tested with two different concentrations of 6-benzylaminopurine (10^−5 M and 10^−6 M). Inhibitory growth activity was determined from the increase in fresh callus weight after four weeks of cultivation. Five replicates were prepared for each concentration tested and the entire test was repeated at least twice.

[6] = biological target: CDK2 (p33^cdk2, cyclin E) (Homo sapiens, UniProt P24941); experiment: CDK inhibition assay, p33^cdk2 kinase, histone H1 phosphorylation;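 note: Baculovirus-expressed kinase/cyclin complex from Sf9 cell extract, 10 min at 30 °C, phosphoproteins separated by SDS gel and quantified by image analysis, activity relative to DMSO control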
Protocol: Cyclin-dependent kinases (p34^cdc2, p33^cdk2) and cyclins (cyclin B, E) are produced in Sf9 insect cells coinfected with appropriate baculoviral constructs. The cells are harvested 68-72 hrs post infection in lysis buffer for 30 min on ice and the soluble fraction is recovered by centrifugation at 14.000 g for 10 min. The protein extract is stored at −80° C.
Lysis buffer: 50mM Tris pH 7.4, 150mM NaCl, 5 mM EDTA, 20 mM NaF, 1% Tween, 1 mM DTT, 0.1 mM PMSF, leupeptine, aprotonine.
To carry out experiments on kinetics under linear conditions, the final point test system for kinase activity measurement is used. The kinase is added to reaction mixture in such a way as to obtain linear activity with respect to the concentration of enzyme and with respect to time.
Kinase activity is determined at 30° C. in the kinase buffer.
Tested compounds are usually dissolved to 100 mM solutions in DMSO, final concentration of DMSO in reaction mixture never exceeds 1%. The controls contain suitable dilutions of DMSO.
After 10 min, addition 3×SDS sample buffer stops the incubations. Phosphorylated proteins are separated electrophoretically using 10% SDS polyacrylamide gel. The measurement of kinase activity is done using digital image analysis.
The kinase activity is expressed as a percentage of maximum activity, the apparent inhibition constants are determined by graphic analysis.
Kinase buffer: 50 mM Hepes pH 7.4, 10 mM MgCl2, 5 mM EGTA, 10 mM

[7] = biological target: CDC2a (cdc2a-MS protein, plant Cdc2-kinase) (Medicago sativa, UniProt P24923); type: biochemical
CDC2a (cdc2a-MS protein, plant Cdc2-kinase) (Medicago sativa, UniProt P24923), sequence (P24923 whole entry): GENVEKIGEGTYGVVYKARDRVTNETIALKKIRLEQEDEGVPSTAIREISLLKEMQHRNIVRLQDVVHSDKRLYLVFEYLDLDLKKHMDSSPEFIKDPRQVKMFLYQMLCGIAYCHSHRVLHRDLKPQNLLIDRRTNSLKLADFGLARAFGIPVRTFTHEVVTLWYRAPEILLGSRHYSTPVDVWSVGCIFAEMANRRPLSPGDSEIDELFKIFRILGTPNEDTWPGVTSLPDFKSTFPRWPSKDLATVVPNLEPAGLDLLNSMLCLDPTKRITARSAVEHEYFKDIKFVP
Protocol: as §1, §2

MMK1 protein kinase = MMK1 protein kinase (Vicia faba, UniProt A0AAV1B7B8); experiment: Plant MMK1 protein kinase inhibition assay; type: biochemical; conditions: plant kinase purified from Vicia faba extracts
MMK1 protein kinase, sequence (A0AAV1B7B8 entry or part of it): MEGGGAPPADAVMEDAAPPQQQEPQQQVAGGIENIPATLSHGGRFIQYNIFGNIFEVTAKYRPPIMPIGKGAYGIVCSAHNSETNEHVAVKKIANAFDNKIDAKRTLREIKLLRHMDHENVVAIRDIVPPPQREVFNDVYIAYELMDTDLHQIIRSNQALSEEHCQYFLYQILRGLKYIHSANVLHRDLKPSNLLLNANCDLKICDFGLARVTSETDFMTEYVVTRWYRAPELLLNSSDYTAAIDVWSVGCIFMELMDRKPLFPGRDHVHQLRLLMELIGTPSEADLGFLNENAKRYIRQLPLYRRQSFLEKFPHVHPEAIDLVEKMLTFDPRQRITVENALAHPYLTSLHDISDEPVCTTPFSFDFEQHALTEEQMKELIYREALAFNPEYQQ
Protocol: Protein extraction and purification of pant CDK by binding to p13^suc1-beads or immunopurification with an antibody specific to the cdc2a-MS protein was carried out as described previously (Bögre et al. 1997, Plant Physiol. 113, 1997, 841-852). The MMK1 protein kinase was purified with a specific antibody from Vicia faba extracts as described by Bögre et al. 1997a, Plant Cell 9, 75-83). Protein kinase activity was measured as described above in Example 19. The quantification of radioactivity incorporated into histone H1 or myelin basic protein was undertaken using Phosphoimager (original gel images shown on FIG. 1). IC50 were calculated from dose-response curves. The drugs inhibited the activity of immunopurified Vicia faba and alfalfa Cdc2-kinase. […] In contrast to the regular bipolar spindle in untreated cell, in drug-treated metaphase cells abnormally short and dense kinetochore microtubule fibres were observed. These microtubules were randomly arranged in the vicinity of the kinetochores and connected the chromosomes. Thus the chromosomes were not aligned on the metaphase plate but were arranged in a circle, with kinetochores pointing inwards and chromosome arms pointing outwards. γ-tubulin, which plays a role in microtubule nucleation, also localised to the centre of the monopolar spindle.

[8] = system: root meristem cells of V. faba; experiment: Antimitotic and apoptotic effects in plant root meristem cells; type: cell-based, Vicia faba; conditions: high doses
[9] = read-out: IC50, growth of tobacco callus, 10^−5 M BAP, 10^−5 M 6-benzylaminopurine
[10] = 10^−6 M 6-benzylaminopurine, read-out: IC50, growth of tobacco callus, 10^−6 M BAP
[11] = read-out: CDK2 IC50, 15 μM ATP, histone H1, 30° C.

inhibition of plant cdc2 kinase activity (FIG. 1) [2] | pIC50 [6] | melting point | SMILES | pIC50 [1] | pIC50 ([3]; Homo sapiens, K562, 72 h) | pIC50 ([4]; Homo sapiens, MCF7, 72 h) | pIC50 [5, 9] | pIC50 [5, 10] | pIC50 [7] | pIC50 (MMK1 protein kinase) | pIC50 [3] | pIC50 [4] | pIC50 [6, 11] | apoptosis in plant cells [8]
specific inhibition | 6.10 |  | CC(C)c1n[nH]c2c(Nc3cccc(Cl)c3)ncnc12 [3-chloroanilino / isopropyl, 7-(3-chloroanilino)-3-isopropylpyrazolo[4,3-d]pyrimidine] | 5.70 | 4.92 | 5.05 | 4.47 | 5.09 |  |  |  |  |  | 
specific inhibition | 6.30 | 153 to 154 °C | CC(C)c1n[nH]c2c(NCc3ccccc3)ncnc12 [benzylamino / isopropyl, 7-benzylamino-3-isopropylpyrazolo[4,3-d]pyrimidine] | 5.89 | 4.14 | 4.26 | 4.62 | 5.19 |  |  |  |  |  | 
 |  |  | CC(C)c1n[nH]c2c(Nc3ccc(Cl)c(C(=O)O)c3)ncnc12 [3-carboxy-4-chloroanilino / isopropyl] | 5.55 |  |  |  |  | 5.80 | 5.77 | 6.00 | 6.40 | 5.54 | 
specific inhibition | 6.05 |  | CC(C)c1n[nH]c2c(NCc3cccc(O)c3)ncnc12 [3-hydroxybenzylamino / isopropyl, 7-(3-hydroxybenzylamino)-3-isopropylpyrazolo[4,3-d]pyrimidine] | 5.96 | 3.88 | 3.98 |  |  |  |  |  |  |  | 
 |  |  | Cc1n[nH]c2c(Nc3ccc(N)c(Cl)c3)ncnc12 [3-chloro-4-aminoanilino / methyl] | 4.59 |  |  |  |  | 4.52 | 4.49 |  |  | 4.55 | 
 |  |  | CC[C@H](CO)Nc1nc(NCc2ccccc2)c2ncn(C(C)C)c2n1 [roscovitine] |  |  |  |  |  |  |  |  |  |  | induced apoptosis
 |  |  | CC(C)c1n[nH]c2c(NC3CCCCC3N)ncnc12 (stereo not drawn) [(2-aminocyclohexyl)amino / isopropyl] | < 4.00 |  |  |  |  | < 4.00 | < 4.00 | < 3.78 | < 3.78 | < 4.00 | 
specific inhibition | 4.80 |  | Cc1n[nH]c2c(NCc3ccco3)ncnc12 [furfurylamino / methyl, 7-furfurylamino-3-methylpyrazolo[4,3-d]pyrimidine] | 4.74 | < 3.78 | 3.85 |  |  |  |  |  |  |  | 
 |  |  | Cc1n[nH]c2c(Nc3cccc(Cl)c3)ncnc12 [3-chloroanilino / methyl] | 4.85 |  |  |  |  | 5.00 | 5.02 | 4.46 | 4.62 | 4.80 | 
